One test has as its target T1, Adenosine receptor A3 (Homo sapiens, UniProt P0DMS8).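 Also: radioligand binding assay with AB-MECA serving as the labeled ligand; in other assays of this panel Not Active means under 50% inhibition at 10 µM.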
T1 sequence (P0DMS8 whole entry): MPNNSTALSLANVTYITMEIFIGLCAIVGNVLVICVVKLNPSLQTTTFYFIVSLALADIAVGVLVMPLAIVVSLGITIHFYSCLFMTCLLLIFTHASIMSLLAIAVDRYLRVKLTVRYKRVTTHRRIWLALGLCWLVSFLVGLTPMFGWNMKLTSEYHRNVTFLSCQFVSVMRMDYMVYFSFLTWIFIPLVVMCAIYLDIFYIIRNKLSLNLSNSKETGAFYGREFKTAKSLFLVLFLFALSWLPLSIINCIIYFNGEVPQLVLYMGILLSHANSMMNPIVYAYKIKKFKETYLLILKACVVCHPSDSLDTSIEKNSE
In kind it is cell membranes, CHO-K1, Membrane.

The target in test [1] is T2, Neuropeptide Y receptor type 1 (Homo sapiens, UniProt P25929). Also: in other assays of this panel Not Active means under 50% inhibition at 10 µM.
T2 sequence (P25929 whole entry): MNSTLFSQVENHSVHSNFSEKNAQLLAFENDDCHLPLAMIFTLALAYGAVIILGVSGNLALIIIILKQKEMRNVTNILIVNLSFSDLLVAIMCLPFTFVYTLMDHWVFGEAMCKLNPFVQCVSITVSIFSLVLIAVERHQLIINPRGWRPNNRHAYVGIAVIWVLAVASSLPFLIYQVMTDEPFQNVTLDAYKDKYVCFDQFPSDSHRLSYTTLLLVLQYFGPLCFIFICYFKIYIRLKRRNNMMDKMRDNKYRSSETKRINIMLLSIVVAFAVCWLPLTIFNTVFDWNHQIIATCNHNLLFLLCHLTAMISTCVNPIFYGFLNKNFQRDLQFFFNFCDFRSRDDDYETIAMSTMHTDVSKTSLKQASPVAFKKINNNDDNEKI
In kind it is cell membranes, Membrane. The conditions noted are these: sk-n-mc.

The target of test [2] is 5-hydroxytryptamine receptor 6 (Homo sapiens, UniProt P50406). It is filed as cell membranes, HeLa, Membrane. Conditions: hela. Also: in other assays of this panel Not Active means under 50% inhibition at 10 µM.
Chain of 5-hydroxytryptamine receptor 6 (P50406 whole entry): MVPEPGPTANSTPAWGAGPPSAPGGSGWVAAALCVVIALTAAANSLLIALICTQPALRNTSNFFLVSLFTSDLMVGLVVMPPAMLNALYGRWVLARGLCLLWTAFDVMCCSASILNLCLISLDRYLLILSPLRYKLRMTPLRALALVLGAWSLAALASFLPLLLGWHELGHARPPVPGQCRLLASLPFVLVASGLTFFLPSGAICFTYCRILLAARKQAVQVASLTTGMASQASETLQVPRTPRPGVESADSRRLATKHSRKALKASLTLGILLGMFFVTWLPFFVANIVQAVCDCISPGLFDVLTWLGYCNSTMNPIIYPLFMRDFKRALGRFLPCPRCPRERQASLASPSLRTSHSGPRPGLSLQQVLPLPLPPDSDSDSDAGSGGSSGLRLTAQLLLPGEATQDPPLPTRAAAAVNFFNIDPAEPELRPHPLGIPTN
A short description of test [3]: DRUGMATRIX: Sodium/nucleoside co-transporter radioligand binding (ligand: nitrobenzylthioinosine). In kind it is cell membranes, Cavia porcellus, Dunkin-Hartley, Cerebral cortex, Membrane. Conditions: Not Active = under 50% inhibition at 10 µM.
Test [4] has as its target T3, Alpha-2A adrenergic receptor (Homo sapiens, UniProt P08913). Also: in other assays of this panel Not Active means under 50% inhibition at 10 µM.
T3 sequence (P08913 whole entry): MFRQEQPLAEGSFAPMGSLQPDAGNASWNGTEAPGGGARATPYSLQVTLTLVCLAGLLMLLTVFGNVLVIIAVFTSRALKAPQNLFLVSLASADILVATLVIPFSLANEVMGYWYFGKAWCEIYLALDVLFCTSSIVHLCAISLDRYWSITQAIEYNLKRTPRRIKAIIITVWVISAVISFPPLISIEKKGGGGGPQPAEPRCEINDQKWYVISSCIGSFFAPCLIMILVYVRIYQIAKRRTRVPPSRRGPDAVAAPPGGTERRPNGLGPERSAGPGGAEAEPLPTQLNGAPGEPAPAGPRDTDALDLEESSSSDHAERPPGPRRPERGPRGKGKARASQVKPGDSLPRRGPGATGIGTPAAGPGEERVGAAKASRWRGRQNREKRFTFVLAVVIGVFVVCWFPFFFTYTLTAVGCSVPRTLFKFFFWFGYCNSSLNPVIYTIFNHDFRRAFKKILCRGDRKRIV
It is filed as cell membranes, Sf9, Membrane.

A further test deals with Melanocortin receptor 5 (Homo sapiens, UniProt P33032). It is filed as cell membranes, HEK293, Membrane. The conditions noted are these: hek293.
Chain of Melanocortin receptor 5 (P33032 whole entry): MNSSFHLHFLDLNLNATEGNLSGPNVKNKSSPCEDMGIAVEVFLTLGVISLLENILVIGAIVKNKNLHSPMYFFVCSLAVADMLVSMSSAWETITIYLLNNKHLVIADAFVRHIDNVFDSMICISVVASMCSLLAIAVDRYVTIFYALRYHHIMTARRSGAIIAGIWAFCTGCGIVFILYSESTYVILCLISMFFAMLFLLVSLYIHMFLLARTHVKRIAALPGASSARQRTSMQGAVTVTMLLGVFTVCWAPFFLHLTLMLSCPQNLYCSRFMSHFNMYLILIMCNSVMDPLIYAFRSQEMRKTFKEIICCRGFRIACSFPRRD
The nature of test [5]: DRUGMATRIX: GABAA, Chloride Channel, TBOB radioligand binding (ligand: [3H] TBOB). Conditions: Not Active = under 50% inhibition at 10 µM. In kind it is cell membranes, Rattus norvegicus, Wistar, Cerebral cortex, Membrane.

A word on the IC50: it is the concentration needed to halve the response being measured. The Ki is a measure of affinity in units of concentration, obtained from inhibition or displacement.

Regarding `C#C[C@]1(O)CC[C@H]2[C@@H]3CCC4=Cc5oncc5C[C@]4(C)[C@H]3CC[C@@]21C` [DANAZOL], the IC50 is 11.2 µM at Adenosine receptor A3 (read-out: IC50); “Not Active” in test [1]; “Not Active” in test [2]; “Not Active” in test [3]; 18.3 µM in test [4] (read-out: IC50); “Not Active” against Melanocortin receptor 5. Besides, the IC50 result in test [5] is listed as “Not Active”. Moreover, the Ki on Adenosine receptor A3 (read-out: Ki) is 6.31 µM; in test [3], “Not Active”; in test [4] (read-out: Ki), 6.87 µM; in test [5], “Not Active”.
As to `CCN[C@@H](C)Cc1cccc(C(F)(F)F)c1` [DEXFENFLURAMINE], the IC50 entry (against Adenosine receptor A3 (cho-k1); in test [1]; in test [2]; in test [3]; in test [4] (sf9); against Melanocortin receptor 5) was “Not Active” each time. For the same molecule, the IC50 entry in test [5] was “Not Active”. In addition, the Ki result in test [3] and in test [5] was “Not Active” throughout.
As to `C[C@H](C(=O)O)c1cccc(C(=O)c2ccccc2)c1` [DEXKETOPROFEN], the IC50 result (against Adenosine receptor A3 (cho-k1); in test [1]; in test [2]; in test [3]; in test [4] (sf9); at Melanocortin receptor 5) was “Not Active” each time. Further, in test [5], the IC50 entry was “Not Active”. Besides, the Ki entry in test [3] and in test [5] was “Not Active” each time.
With `CN1C(=O)CN=C(c2ccccc2)c2cc(Cl)ccc21` [DIAZEPAM], the IC50 result (at Adenosine receptor A3 (cho-k1); in test [1]; in test [2]; in test [3]; in test [4] (sf9); against Melanocortin receptor 5) was “Not Active” each time. Moreover, in test [5], the IC50 entry was “Not Active”. The Ki result in test [3] and in test [5] was “Not Active” in each case.
Take `Cc1c(N(C)CS(=O)(=O)[O-])c(=O)n(-c2ccccc2)n1C.[Na+]` [DIPYRONE SODIUM]: the IC50 entry (against Adenosine receptor A3 (cho-k1); in test [1]; in test [2]; in test [3]; in test [4] (sf9); on Melanocortin receptor 5) was “Not Active” each time. Besides, the IC50 result in test [5] was “Not Active”. Further, the Ki result in test [3] and in test [5] was “Not Active” throughout.
As to `CC(CCc1ccc(O)cc1)NCCc1ccc(O)c(O)c1` (stereo not drawn) [DOBUTAMINE], the IC50 entry (against Adenosine receptor A3 (cho-k1); in test [1]; in test [2]; in test [3]; in test [4] (sf9); on Melanocortin receptor 5) was “Not Active” in each case. Besides, the IC50 entry in test [5] was “Not Active”. Moreover, the Ki result in test [3] and in test [5] was “Not Active” in each case.
For the molecule `CCn1cc(C(=O)O)c(=O)c2cc(F)c(N3CCNCC3)nc21` [ENOXACIN], the IC50 result (against Adenosine receptor A3 (cho-k1); in test [1]; in test [2]; in test [3]; in test [4] (sf9); at Melanocortin receptor 5) was “Not Active” throughout. Further, in test [5], the IC50 entry was “Not Active”. Further, the inhibition constant Ki result in test [3] and in test [5] was “Not Active” throughout.
For the molecule `CCC(=O)O[C@H]1[C@H](O[C@@H]2[C@@H](C)[C@H](O[C@H]3C[C@@](C)(OC)[C@@H](O)[C@H](C)O3)[C@@H](C)C(=O)O[C@H](CC)[C@@](C)(O)[C@H](O)[C@@H](C)C(=O)[C@H](C)C[C@@]2(C)O)O[C@H](C)C[C@@H]1N(C)C` [ERYTHROMYCIN PROPIONATE], the IC50 result (at Adenosine receptor A3 (cho-k1); in test [1]; in test [2]; in test [3]; in test [4] (sf9); at Melanocortin receptor 5) was “Not Active” throughout. Further, the IC50 entry in test [5] was “Not Active”. The Ki entry in test [3] and in test [5] was “Not Active” throughout.
`C=C(CC)C(=O)c1ccc(OCC(=O)O)c(Cl)c1Cl` [ETHACRYNIC ACID]: the IC50 entry (on Adenosine receptor A3 (cho-k1); in test [1]; in test [2]; in test [3]; in test [4] (sf9); at Melanocortin receptor 5) was “Not Active” each time. For the same molecule, the IC50 result in test [5] was “Not Active”. The Ki result in test [3] and in test [5] was “Not Active” each time.

These data come from ChEMBL document CHEMBL1909046, “DrugMatrix in vitro pharmacology data”.
